TGI and GI50 data for 42 compounds are collected here from PubChem BioAssay (NCI).

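These data come from cells grown in 96-well plates and exposed to compound for 48 hours at five concentrations. At the GI50, growth is halved. TGI is the concentration that stops growth completely.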

What all share (assay): NCI tumour cell line growth inhibition, 48 h
The test system of experiment [1] is DLD-1 colon.
Experiment [2] relates to DMS 273 small cell lung.
Experiment [3] concerns HOP-18 NSCLC.
Experiment [4] has as its system KM20L2 colon.
In experiment [5] the test system is M19-MEL melanoma.
For experiment [6], the system named is MDA-N.
Experiment [7] has as its system SNB-78 CNS.
Experiment [8] deals with XF 498 CNS.
For experiment [9], the system named is P388/ADR leukemia.
For experiment [10], the system named is SN12K1 renal.
For experiment [11], the system named is RXF-631 renal.

Take `Clc1ccc2ns[s+]c2c1`: the TGI in experiment [1], in experiment [2], in experiment [3], in [4], in [5] and in [6] was above 100 µM in each case. Also, the TGI in experiment [7] and in [8] was above 100 µM throughout.

Take `Nc1cc2[nH]cnc2c(=O)[nH]1`: the TGI in experiment [1] was above 300 µM; in [2], above 146 µM; in experiment [3], above 300 µM; in [4], above 300 µM; in [5], above 300 µM; in [6], above 300 µM. In addition, the TGI in [9] is above 300 µM; in [10] it was above 300 µM; in experiment [7], above 300 µM; in experiment [8] it was 29.4 µM.

Turning to `CCCCCCCCCCCCCCCCCCNC(=O)OCC(CNS(=O)(=O)CCC[n+]1cccc2ccccc21)COC` (configuration not stated), the TGI in experiment [1] turned out to be 27.5 µM; in [3], 15.4 µM; in [4], 2.15 µM; in experiment [7], 7.92 µM.

On to `C/C=C(/C)c1cnc(CC(C)C)c(=O)[nH]1`, for which the TGI in experiment [6] was above 100 µM.

Regarding `Cc1cc(=O)oc2cc(OC(=O)N(CCCl)CCCl)ccc12`, the TGI in experiment [6] was above 100 µM.

`CC1(C)C(=O)C=CC2(C)C1CC(O)C1(C)C2CCC2(C)C(c3ccoc3)OC(=O)C3OC321` (configuration not stated) gave a TGI in experiment [6] of 41.8 µM.

`COC(=O)[C@]1(C)CCC[C@@]2(C)[C@@H]3C[C@@H]4[C@H]5C[C@@]3(CC[C@@H]21)C[C@@]45C` displayed a TGI in [6] of 31.8 µM.

With `CC1(O)CCC2(C)C(=O)C1(C)CCC21OCCO1` (configuration not stated), the TGI in [1], in [2], in experiment [3], in experiment [5] and in experiment [8] was above 100 µM in each case.

Turning to `Cc1c(Cl)cccc1NC(=O)/C(Cl)=C(\Cl)C(=O)O`, the TGI in experiment [1] came out at 40.6 µM; in experiment [2], 38.4 µM; in experiment [3], 31.7 µM; in [4], 40.9 µM; in experiment [5], 30.7 µM; in [11], 56.7 µM. The same compound gave a TGI in experiment [7] of 44.7 µM.

In the case of `CCC[CH2][Sn]1([CH2]CCC)[O]C(=O)c2ccc(N)cc2[O]1`, the GI50 was 1.04 µM in [2]; 0.997 µM in experiment [3]; 1.57 µM in experiment [4]; 0.668 µM in [6]; 0.0801 µM in [7]. Besides, the TGI in experiment [2] is 2.56 µM; in experiment [3], 2.18 µM; in experiment [4] it was 3.17 µM; in [5], 1.66 µM; in [6], 1.97 µM; in [7], 1.18 µM.

With `O=C1CCN2CCC(=O)c3c2c(cc2ccccc32)N1`, the TGI was above 100 µM in experiment [1]; above 100 µM in experiment [2]; above 100 µM in [4]; above 100 µM in experiment [5]; above 100 µM in experiment [7]; 93.5 µM in experiment [8].

Take `COc1c(Sc2ccccc2)cc(Sc2ccccc2)c2cccnc12`: the TGI was above 100 µM in experiment [1]; 49.3 µM in [2]; 50.2 µM in [4]; 94.9 µM in experiment [5]; above 100 µM in experiment [11]; above 100 µM in experiment [7]. This compound also registered a TGI in experiment [8] of 45.6 µM.

`CCOC(=O)C1=C(Nc2ccc(Cl)c(Cl)c2)OC/C1=N\NC(=O)Cc1ccccc1`: the TGI in experiment [1], in experiment [2], in experiment [3], in [4], in experiment [5] and in experiment [7] was above 100 µM in each case. Further, the TGI in experiment [8] was above 100 µM.

In experiment [6], `CN1c2ccccc2S(=O)(=O)n2c(CCc3ccccc3)nnc21` gave a TGI above 100 µM.

Regarding `COC(=O)C(CC(=O)c1c[nH]c2ccccc12)c1c[nH]c2ccccc12` (configuration not stated), the TGI was above 100 µM in experiment [1]; 27.6 µM in [2]; 34 µM in experiment [4]; above 10 µM in [5]; 31.5 µM in experiment [11]; 58.2 µM in [7]. The same compound showed a TGI in experiment [8] of 31.8 µM.

In the case of `Clc1ccc2c(c1)[nH]c1c2nc2sccn21`, the TGI in experiment [1], in [2], in experiment [3], in experiment [4], in experiment [5] and in experiment [11] was above 100 µM throughout. In addition, the TGI in experiment [7] and in [8] was above 100 µM each time.

Take `Cc1c(C(=O)CC(=O)C(=O)Nc2cc(Cl)ccc2Cl)[n+](=O)c2ccccc2n1[O-]`: the TGI in experiment [2] is 69.4 µM; in experiment [3] it was above 100 µM; in experiment [4], above 100 µM; in [5] it was 59.1 µM; in [7], above 100 µM; in experiment [8], above 100 µM.

`COc1ccccc1NC(=O)C1=C(C)NC(C)=C(C(=O)Nc2ccccc2OC)C1c1ccc(N(C)C)cc1`: the TGI in experiment [1] is 55.1 µM; in experiment [4] it was 96.8 µM; in [5] it was above 100 µM; in experiment [7], 81.1 µM; in experiment [8] it was 57.1 µM.

For `CC(C(=O)O)c1ccc(-c2ccccc2)c(F)c1` (configuration not stated), the TGI in experiment [6] is above 100 µM.

With `NC(=O)c1csc(C2CCC(CO)O2)n1` (configuration not stated), the TGI in [2], in experiment [3], in experiment [4], in [5] and in experiment [7] was above 100 µM throughout.

As to `CN1C(=O)C2C=CC1C1CCC2N(C)C1=O` (configuration not stated), the TGI in [1], in experiment [2], in [3], in experiment [5], in experiment [11] and in experiment [7] was above 100 µM each time.

With `COC(=O)c1ccc(C(=O)OC)c2nc3cc(C)ccc3nc12`, the TGI in experiment [1], in [2], in [3], in experiment [4], in experiment [11] and in experiment [7] was above 100 µM in each case. This compound also yielded a TGI in experiment [8] above 100 µM.

Turning to `COc1cc(/C=C/c2ccc(OC)c(OC)c2OC)cc(OC)c1OC`, the TGI is above 100 µM in [1]; 41 µM in [2]; 44.9 µM in experiment [3]; 55.3 µM in [4]; 51 µM in experiment [5]; 51.2 µM in experiment [11]. Also, the TGI in experiment [7] was 46.4 µM; in experiment [8] it was 72.3 µM.

On to `Cc1cccc(N=C2NC(=O)C(CC(=O)Nc3ccc(C)cc3C)S2)c1` (configuration not stated), for which the TGI in experiment [1], in [2], in experiment [4], in experiment [5], in [7] and in experiment [8] was above 100 µM in each case.

`COC(=O)C(=O)C(C(=O)C(N)=O)c1nc2ccc(C(=O)c3ccccc3)cc2[nH]c1=O` (configuration not stated) yielded a TGI in experiment [6] above 100 µM.

With `ClCc1ccc(C2OCCO2)cc1`, the TGI was 34.3 µM in experiment [1]; 45.3 µM in experiment [2]; above 92.2 µM in experiment [3]; above 69 µM in [4]; 37.8 µM in [5]; above 100 µM in [11]. Moreover, the TGI was above 31.6 µM in experiment [7] and 33.3 µM in [8].

Turning to `COC(=O)[C@H]1N[C@@H](C(=O)OC)C23CCC[C@H]2CC[C@]1(C(OC)OC)C3`, the TGI in experiment [1], in [2], in experiment [3], in experiment [4], in [5] and in experiment [7] was above 100 µM each time. In addition, the TGI in experiment [8] was above 100 µM.

Regarding `O=C(CSc1nc(-c2ccccc2)c(-c2ccccc2)[nH]1)NNC(=S)Nc1ccccc1`, the TGI in [1], in [2], in [4], in experiment [5], in experiment [7] and in experiment [8] was above 100 µM each time.

In [6], `[N-]=[N+]=CC(=O)COC(=O)c1ccccc1` had a TGI above 100 µM.

Consider `O=c1cc(-c2ccccn2)[nH]c2cc(F)ccc12`, for which the TGI in experiment [1], in experiment [3], in experiment [4], in experiment [5], in experiment [11] and in [7] was above 100 µM in each case.

In turn, `Nc1nc(N)nc(CC(=O)O)n1` returned a TGI in experiment [6] above 100 µM.

In the case of `CC(/C=C/NNC1=NC(c2ccccc2)C(c2ccccc2)=NN1)Sc1ccccc1N` (configuration not stated), the TGI in [1] was found to be 21.7 µM; in experiment [2] it was 22.9 µM; in [4] it was 23.2 µM; in [5], 28.9 µM; in experiment [11] it was 38.7 µM; in [7], 67.9 µM.

For the compound `C[C@]12CC[C@H]3[C@@H](CC[C@]4(O)C[C@@H](O)CC[C@]34CO)[C@@]1(O)CC[C@@H]2C1=CC(=O)OC1`, in experiment [6], the TGI stood at 14.4 µM.

For the compound `COc1cc2c(c(OC)c1OC)-c1ccc(O)c(=O)cc1[C@@H](NC(C)=O)CC2`, the TGI in experiment [6] amounted to 34.4 µM.

In the case of `CC1=NOC(=O)C1N=Nc1ccc(Br)c(C)c1` (configuration not stated), the TGI in [1] is 63.1 µM; in [2] it was 45.6 µM; in [3], 19.8 µM; in [4] it was above 100 µM; in [5], 35.6 µM; in experiment [7] it was 62.8 µM. This compound also had a TGI in experiment [8] of 31.7 µM.

For `N#Cc1c(C[n+]2ccccc2)c2ccccc2oc1=O`, the TGI in [1], in experiment [2], in experiment [4], in experiment [5], in [7] and in experiment [8] was above 100 µM in each case.

Consider `CCOC(=O)c1c(-c2ccccc2)c(C(OC(c2ccccc2)c2c(-c3ccccc3)c(C(=O)OCC)n3ccccc23)c2ccccc2)c2ccccn12` (configuration not stated), for which the TGI in [1], in experiment [2], in [3], in [4], in [7] and in experiment [8] was above 100 µM throughout.

Consider `Cc1ccc2sc3ccc(N)cc3c(=O)c2c1`, for which the TGI in experiment [6] is above 100 µM.

Regarding `COc1ccc2ccccc2c1CN1CCOCCOCCN(Cc2c(OC)ccc3ccccc23)CCOCCOCC1`, the TGI in experiment [1] was above 100 µM; in [2], 70.5 µM; in [4] it was above 100 µM; in experiment [5], above 100 µM; in experiment [7], above 100 µM; in experiment [8], above 63.2 µM.

As for `NNS(=O)(=O)c1cc(C(=O)O)cc(C(=O)O)c1`, the TGI in experiment [6] is above 100 µM.

With `COC(=O)[C@]1(C)C(OC)=CC(=O)C2C1[C@H]1CCC[C@@H]21` (some centres not stated), the TGI in [1], in experiment [3], in experiment [4], in experiment [5], in experiment [7] and in experiment [8] was above 100 µM in each case.

Take `S=P(N1CCCC1)(N1CC1)N1CC1`: the TGI in experiment [1], in [2], in experiment [3], in experiment [4], in experiment [5] and in experiment [7] was above 100 µM in each case. Further, in experiment [8], the TGI is above 100 µM.
